Measured values published in patent US20150010917A1, “METHOD TO IDENTIFY LIGANDS FOR SIGMA-1 RECEPTORS” (LABORATORIOS DEL DR. ESTEVE S.A., priority 2012, published 2015).

Columns and labels:
[1] = molecular target: T1, σ1^spCFP/YFP construct expressed in HEK-293 cells (Homo sapiens, UniProt Q99720); assay: Single-cell real-time intramolecular FRET (iFRET) of the σ1 receptor FRET sensor; type: cell-based; conditions: for change in the FRET signal of the σ1^spCFP/YFP: 100 μM, single HEK-293 cell, FIG. 3
T1 construct: PTHR (PTH1R) signal peptide (N); expressed in transfected cells; host or cells: HEK-293 (stably transfected, G418 selected)
Procedure: In the single cell real time intramolecular-FRET approach both donor (i.e. CFP) and acceptor (i.e. YFP) are located in the same molecule, as designed for the σ1^CFP/YFP and the σ1^spCFP/YFP constructs (FIG. 1A). In brief, HEK cells permanently expressing the corresponding σ1 receptor FRET sensor were seeded in poly-D-Lysine coated coverslips and allow growing overnight. Then, the coverslips with transfected cells were mounted in an Attofluor holder and placed on an inverted Axio Observer microscope (Zeiss, Jena, Germany) equipped with a 63× oil immersion objective and a dual-emission photometry system (Till Photonics, Gräfelfing, Germany). The extracellular buffer was Hank's Balanced Salt Solution (HBSS), containing (in mM): 137 NaCl, 0.34 Na2HPO4, […], 0.44 KH2PO4, 0.5 MgCl2, 0.4 Mg2SO4, 1.26 CaCl2, 10 HEPES, 2 D-glucose and 1 ascorbic acid (pH 7.4 with NaOH).
A Polychrome V (Till Photonics) was used as the light source. The sample was illuminated with excitation light at 436±10 nm (beam splitter dichroic long-pass; DCLP 460 nm). Excitation time was 10 ms at 10 Hz, in order to limit photobleaching. Emission light intensities were determined at 535±15 and 480±20 nm (DCLP 505 nm). No corrections for spillover between channels or direct YFP excitation were made.
Single cells were selected for recording based on their σ1 expression as judged by its fluorescence. […] The ligands were applied using a pressure-driven, computer-controlled perfusion system (Octaflow; ALA Scientific Instruments, Westbury, N.Y., USA) and experiments were carried out at room temperature. Finally, a Digidata 1440 analog/digital converter (Molecular Devices, Sunnyvale, Calif., USA) was used for interfacing the photometry system and the perfusion system with a personal computer, which was used to control these systems and to record data. Finally, pCLAMP (Molecular Devices) and GraphPad Prism (GraphPad Software Inc., San Diego, Calif., USA) software were used for data collection and analysis.

σ1^YFP and CFP = assay: Control experiments with coexpression of σ1^YFP and CFP; type: cell-based, human; conditions: data not shown
Procedure: Next, we investigated whether σ1 challenge produced any rearrangements of the N- and C-terminal domains (i.e. conformational change) of the σ1 receptor by monitoring real time changes in the FRET efficiency. To this end, changes in the emission intensities of YFP (535 nm, yellow), CFP (480 nm, cyan) and the ratio F*535/F*480 (black) were recorded simultaneously from single cells after rapid superfusion with σ1 receptor ligands.

σ1 site = σ1 site (Homo sapiens, UniProt Q99720); conditions: cited from earlier work
sigma-2 (σ2) site = sigma-2 (σ2) site (Homo sapiens, UniProt Q5BJF2); conditions: cited from earlier work
Sequence of sigma-2 (σ2) site (Q5BJF2 whole entry): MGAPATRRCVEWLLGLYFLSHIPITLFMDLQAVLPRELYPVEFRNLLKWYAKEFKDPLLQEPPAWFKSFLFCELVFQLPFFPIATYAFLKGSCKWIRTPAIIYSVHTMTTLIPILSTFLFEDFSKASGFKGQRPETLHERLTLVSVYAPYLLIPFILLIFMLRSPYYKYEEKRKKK

## CC(C)=CCN1CCC2(C)c3cc(O)ccc3CC1C2C (single isomer, unassigned; (+)) [(+)-Pentazocine]
[1]
  change in the FRET signal of the σ1^spCFP/YFP: decrease

## CCCN(CCC)CCc1ccc(OC)c(OCCc2ccccc2)c1 [NE-100]
[1]
  change in the FRET signal of the σ1^spCFP/YFP: increase

## O=C(CCCN1CCC(O)(c2ccc(Cl)cc2)CC1)c1ccc(F)cc1 [Haloperidol]
σ1^YFP and CFP
  FRET in the presence of ligand: no FRET

## O=C(OCCN1CCOCC1)C1(c2ccccc2)CCCCC1 [PRE-048]
[1]; 100 μM ligand
  delay before FRET change: ~5 s
[1]; 100 μM ligand, n=3
  time constant τ of monoexponential time course of FRET change: 10.3 ± 0.3 s
[1]; 100 μM ligand, rapid superfusion, single HEK-293 cells, FIG. 2D-E
  change in the F*535/F*480 ratio: rapid decrease
[1]
  change in the FRET signal of the σ1^spCFP/YFP: decrease
σ1^YFP and CFP
  FRET in the presence of ligand: no FRET

## C=CCN1CC[C@]2(C)c3cc(O)ccc3C[C@H]1[C@H]2C [SKF-10,047]
σ1 site
  affinity for the σ1 site: nanomolar affinity
sigma-2 (σ2) site
  affinity for the sigma-2 (σ2) site: micromolar affinity

## COc1ccc2c(c1)[C@]13CCCC[C@@H]1[C@H](C2)N(C)CC3 [Dextromethorphan]
[1]
  change in the FRET signal of the σ1^spCFP/YFP: decrease

## CCCN1CCC[C@H](c2cccc(O)c2)C1 [(+)-3-PPP]
[1]
  change in the FRET signal of the σ1^spCFP/YFP: decrease
